The subject of data set [1] is carrageenin-induced oedema. Description: carrageenin-induced oedema test upon rats, anti-inflammatory effect (Winter et al.). It counts as in vivo. To be noted: Rattus norvegicus, phenylbutazone control, read-out: Carrageenin (A.D. 30, mg/kg). Here is the method:
(§1) The pharmacological, analgesic and anti-inflammatory effectiveness and the slightly ulcerating effect of the propionic acids and their functional derivatives was determined by various methods. The compounds are identified by the numbers of the examples.
The anti-inflammatory effect of the compounds claimed was established, inter alia, by the carrageenin-induced oedema test upon rats (Winter et al. -- Proc. Soc. Exp. Biol. Med. 1962, Vol. III, pages 544 and 547). The results obtained with certain of the compounds of the invention are given below in Table II (phenylbutazone was used as a control).

In a further data set the test system is acetic test upon mice. The experiment in a line: acetic test upon mice, analgesic effect (Siegmund method as modified by Koster, Anderson and Debeer). It counts as in vivo. To be noted: Mus musculus. An excerpt: The compounds are identified by the numbers of the examples.
The test system of another data set is ulcers. The experiment in a line: aggravation of ulcers already caused in rats (Shay et al.), ulcerating effect. It counts as in vivo. How it is done: as §1
The compounds were compared with phenylbutazone in order to evaluate their ulcerating effect. The method used was that of aggravating ulcers which has already been caused in rats by the procedure described by Shay et al (Gastroenterology, 1945, Vol. 5, pages 43 to 61).

The nature of data set [2]: observations made during clinical trials. It counts as in vivo, human (patients: Mrs. / Mr.). How it is done:
Pharmaceutical compositions comprising a compound of the invention as their active ingredient and a physiologically acceptable, solid or liquid pharmaceutical excipient or diluent enable the active ingredient to be administered in daily doses of from 20 to 1000 mg. Among the observations made during clinical trials with the compound of Example 13 the following may be mentioned:
Among the observations made during clinical trials of the compound of Example 22 may be mentioned the following five: […]

For data set [3] the following is noted: recently discovered; cited from earlier work.
[4] abbreviates: mice, acetic test, aspirin control, read-out: ED50.
[5] abbreviates: A person, cervical pain from arthritic spine, four 100 mg tablets per day, 8 days.
Setting [6] is: A person, pseudoarthrosis of the knee, five 100 mg tablets per day, 8 days.
Where [7] appears, read: A person, stripping of varicose veins, six 100 mg tablets per day, 5 days.
The mark [8] stands for this setting: person one, sciatica, four 100 mg tablets per day, 10 days.
The mark [9] stands for this setting: person two, post-fracture gonarthrosis, four 100 mg tablets per day, 10 days.
The mark [10] stands for this setting: A person, inflammation of arteries in lower limbs, four 150 mg tablets per day, five days.
The mark [11] stands for this setting: A person, lumbar arthrosis, six 150 mg tablets per day, 10 days.
The mark [12] stands for this setting: A person, removal of left knee-cap, six 150 mg tablets per day, 5 days.
Where [13] appears, read: A person, very intense lumbar pain, four 150 mg tablets per day, ten days.

SMILES strings stand for the structures. Where a name gives a salt, the structure may show the parent alone. Read-outs that look alike come from different tables or passages of the source.

The term ED50 denotes the dose that gives a 50% effect, or the effect in half of the subjects. Turning to `COC(=O)C(C)c1ccc2oc(-c3cccs3)cc(=O)c2c1` (stereo not drawn) [Example 29, Methyl 2-[2'-(α-thienyl)-6'-chromonyl]propionate], the ED30 in data set [1] stood at 37 mg/kg. In addition, in the data set on acetic test upon mice (setting [4]), the ED50 came out at 2.3 mg/kg.

`CCCCC1C(=O)N(c2ccccc2)N(c2ccccc2)C1=O` [Phenylbutazone, reference compound]: in data set [1], the ED30 came to 50 mg/kg. For the same molecule, in the data set with ulcers (dose 200 mg/kg body weight/PO), the “Aggravation of ulceration, Coefficient” value was found to be 100.

Regarding `CC(C(=O)OCCN1CCOCC1)c1ccc2oc(-c3cccs3)cc(=O)c2c1` (stereo not drawn) [Example 32, The acid oxalate of β-morpholinoethyl-2-[2'-(α-thienyl)-6'-chromonyl]propionate], the ED50 in the data set on acetic test upon mice (setting [4]) was determined as 4.6 mg/kg.

Consider `CCCOC(=O)C(C)c1ccc2oc(-c3ccccc3)cc(=O)c2c1` (stereo not shown) [Example 25, Propyl 2-(2'-phenyl-6'-chromonyl)propionate], for which, in data set [1], the ED30 worked out at 85 mg/kg. Besides, in the data set with acetic test upon mice (setting [4]), the ED50 amounted to 6 mg/kg.

Regarding `CC(C(=O)O)c1ccc2oc(-c3cccs3)cc(=O)c2c1` (stereo not drawn) [Example 13, 2-[2'-(α-Thienyl)-6'-chromonyl]propionic acid], the ED30 in data set [1] came to 10 mg/kg. Moreover, the “Aggravation of ulceration, Coefficient” value in the data set with ulcers (dose 300 mg/kg body weight/PO) is given as 50. In addition, the ED50 with acetic test upon mice (setting [4]) came out at 1.5 mg/kg. Besides, in data set [2] (setting [5]), the analgesic effect result is “good” and the “movement in the neck” value is listed as “restored movement to normal amplitude in the neck unaccompanied by pain”. Besides, in data set [2] (setting [6]), the antiinflammatory effect result is reported as “very good”, the “duration of relief of pain” value is reported as “three” and the relief of pain result is listed as “good”. In data set [2] (setting [7]), the duration of relief is 3 h, the relief entry is given as “complete” and the “time after administration until relief apparent” value is “less than 30 minutes”. The tolerance entry in data set [2] (A person, five 100 mg tablets per day, 8 days) is listed as “perfect”. In addition, the tolerance result in data set [2] (A person, four 100 mg tablets per day, 8 days) was “very good”. Also, in data set [2] (A person, six 100 mg tablets per day, 5 days), the tolerance result was “very good”. In data set [2] (setting [8]), the analgesic effect entry is listed as “excellent” and the “improvement in the results of the Lasegue test” value is given as “from 45 to 75”. Besides, the tolerance result in data set [2] (person one, four 100 mg tablets per day, 10 days) is reported as “complete”. In data set [2] (setting [9]), the analgesic effect entry is “very positive”, the knee flexion improvement entry is reported as “from 15 to 25”, the “results on the knee” value is listed as “excellent” and the “temperature of the knee” value is reported as “returned to its normal temperature”. Besides, the tolerance entry in data set [2] (person two, four 100 mg tablets per day, 10 days) is recorded as “good”.

In the data set on acetic test upon mice, `CC(=O)Oc1ccccc1C(=O)O` [Aspirin, reference compound] returned a median effective dose (ED50) of 130 mg/kg.

In the case of `CC(C(=O)O)c1ccc2oc(-c3ccccc3)cc(=O)c2c1` (stereo not shown) [Example 22, 2-(6'-Flavonyl)propionic acid], the ED30 in data set [1] amounted to 65 mg/kg. Further, in the data set with ulcers (dose 300 mg/kg body weight/PO), the “Aggravation of ulceration, Coefficient” value was 60. The ED50 in the data set on acetic test upon mice (setting [4]) stood at 9 mg/kg. In addition, in data set [2] (setting [10]), the duration of relief entry is on record as “more than three”, the relief result is given as “very distinct relief” and the “time after administration until relief” value is listed as “less than 30 minutes”. In data set [2] (setting [11]), the duration of relief result is reported as “three”, the functional improvement entry is reported as “appreciable functional improvement” and the “time after administration until relief” value is listed as “thirty”. Also, the “results against pain and signs of inflammation” value in data set [2] (A person, pain in neck and arm, four 150 mg tablets per day, eight days) was “very good”. Moreover, in data set [2] (setting [12]), the duration of relief was greater than 3 h, the relief entry is recorded as “complete” and the “time until relief appears” value was “less than 30 minutes”. In addition, in data set [2] (setting [13]), the antalgic effect entry is on record as “excellent”, the “distance which the patient could move their fingertips towards the ground” value is on record as “from 40 to 5” and the improvement entry was “very pronounced improvement”. For the same molecule, the tolerance result in data set [2] (A person, four 150 mg tablets per day, eight days) is listed as “complete”. Besides, in data set [2] (A person, four 150 mg tablets per day, five days), the tolerance entry is given as “satisfactory”. For the same molecule, the tolerance entry in data set [2] (A person, four 150 mg tablets per day, ten days) is “complete”. In addition, the tolerance result in data set [2] (A person, six 150 mg tablets per day, 5 days) was “good”. In addition, the tolerance entry in data set [2] (A person, six 150 mg tablets per day, 10 days) is “complete”.

Turning to `O=C(O)Cc1ccc2oc(-c3ccccc3)cc(=O)c2c1` [6-(2-Phenylchromonyl) acetic acid], the choleretic activity entry in data set [3] is reported as “choleretic activity”.
